{"source": "patent US8993626B2", "about": "“Methods of treatment using sterculic acid” (The United States of America, as represented by the …, priority 2010, dated 2015)", "key": {"[1]": {"tested_on": "Leukemia, HL-60 (TB)", "test": "NCI in vitro anti-cancer cell line screen (SRB)", "type": "cell-based", "settings": "Homo sapiens, 48 h"}, "[2]": {"tested_on": "Non-Small Cell Lung Cancer, NCI-H226", "test": "NCI in vitro anti-cancer cell line screen (SRB)", "settings": "Homo sapiens, NCI-H226, 48 h", "protocol": "The human tumor cell lines used in the cancer screen panel were grown in RPMI 1640 medium containing 5% FBS and 2 mM L-glutamine. The cells were inoculated into 96-well microtiter plates in 100 μl at plating density ranging from 5000 to 40,000 cell/well. […] Following drug addition, the plates were incubated for an additional 48 h. The assay was terminated by the addition of cold 10% TCA. The supernatant was discarded, and the plates were washed five times with water and air dried. Sulforhodamine B (SRB) solution (100 μl) at 0.4% (w/v) in 1% acetic acid was added to each well, and plates were incubated for 10 min at room temperature. After staining, unbound dye was removed by washing five times with 1% acetic acid and the plates were air dried. Bound stain was subsequently solubilized with 10 mM trizma base, and the absorbance was read on an automated plate reader at a wavelength of 515 nm.\nA sulforhodamine B (SRB) end point was used to calculate the median growth inhibition (GI50). GI50 refers to the concentration at which the drug inhibits tumor cell growth by 50%."}, "[3]": {"tested_on": "stearoyl-CoA desaturase (SCD)", "test": "SCD mRNA expression (qRT-PCR)", "type": "cell-based", "description": "FIGS. 18A and 18B depict (A) Dose response of SCD mRNA inductions by 0-12 μM 7KCh after 24 hr treatments. (B) The mRNA expressions of SCD in response to 8 μM 7KCh, 1 μM sterculic acid, 1 μM stearic acid, or the combinations of 7KCh with either sterculic acid or stearic acid. Error bars indicate the standard deviations. n=4.\n(§1) The RNA was extracted using RNeasy Mini Kit (Qiagen, Valencia, Calif.). The reverse transcription was performed with reagents and kits from Invitrogen. Quantification of mRNA expression was performed using the Taqman gene expression assays and the following primers (VEGFa, Hs00173626_m1; IL-1β, Hs01555413_m1; IL-6, Hs00174131_m1; IL-8, Hs00174103_m1; IκBα, Hs00153283_m1; GRP78, Hs99999174_m1; CHOP, Hs01090850_m1; NOX2, Hs00166163_m1; NOX4, Hs01558199_m1; SCD, Hs00748952 s1; TNF-α, Hs00174128_m1; TGF-β1, Hs00998133_m1; GAPD, 4352934e). GAPD expression was used as an endogenous standard. All qRT-PCR experiments were measured in triplicates in an ABI 7500 Real-Time PCR Instrument (Applied Biosystems, Foster City, Calif.). The results of each treatment were normalized and presented in percentage relative to the vehicle-only control.\nTo determine the effect of 7KCh on SCD expression ARPE-19 cells were incubated with 4 μM 7KCh for 24 hr. 7KCh suppressed SCD mRNA expression by approximately 60-70% (FIG. 18A). […] Treatment of the cells with 8 μM 7KCh and 1 μM sterculic acid further suppress SCD expression to 86% (FIG. 18B). […] This is the only instance where 7KCh and sterculic acid worked synergistically rather than antagonistically."}, "[4]": {"tested_on": "ARPE-19 cells", "test": "qRT-PCR of cytokines in TNF-α treated cells", "type": "cell-based", "description": "FIGS. 17A-17D depict the mRNA expressions of (A) IL-1β, (B) IL-8, (C) IκBα, and (D) GRP78 in response to 2 ng/ml TNF-α, 1 μM sterculic acid, 1 μM stearic acid, or the combinations of TNF-α with either sterculic acid or stearic acid. n=3. Error bars indicate the standard deviations.\nTumor necrosis factor-alpha (TNF-α, Roche Diagnostics, Indianapolis, Ind.) was diluted in PBS to make 10 μg/ml stock solution and stored at −20° C. In order to test the anti-inflammation effect of fatty acids against TNF-α, ARPE-19 cells were treated with 2 ng/ml of TNF-α for 24 hr in serum-free medium with or without 1 μM fatty acids. The mRNA expressions of cytokines were then examined using qRT-PCR. Each treatment was performed three times with quadruplicate measurements in each experiment, in 24-well plates.\nas §1"}, "[5]": {"tested_on": "HUVEC", "test": "Cell migration (chemotaxis) assay, Boyden chamber, VEGF as chemoattractant", "type": "cell-based", "description": "Cell migration was assessed using the 48-well Boyden chamber and 8 μm pore size collagen-coated (10 μg/ml rat tail collagen; Collaborative Laboratories) polycarbonate filters (Osmonics, Inc). The bottom chamber wells received 29 μl of DMEM medium alone (baseline) or medium containing chemoattractant (VEGF). The top chambers received 45 μl of HUVEC cell suspension (1×10^6 cells/ml) prepared in DMEM+1% BSA with or without sterculic acid. After 5 h incubation at 37° C., the membrane was rinsed in PBS, fixed and stained Diff-Quick solutions. The filter was placed on a glass slide with the migrated cells facing down and cell on top were removed using Kimwipe. The testing was performed in 4 replicates and five fields were counted from each well. The data was plotted as mean migrated cells±SD. IC50 was calculated from the plotted data."}, "[6]": {"tested_on": "ARPE-19 cells", "test": "Fatty acids against 7KCh-mediated cell death (CCK8)", "type": "cell-based", "description": "FIGS. 12A-12C depict ARPE-19 cell viability in response to 12 μM 7KCh with or without 0.1-5 μM (A) sterculic acid and (B) stearic acid after 24 hr treatments. Error bars indicate the standard deviations. n=3-5. Two-tailed Student's t-test. (C) Representative images of changes in cell morphology in response to 12 μM 7KCh with or without 1 μM sterculic acid and stearic acid after 24 hr treatments.\nARPE-19 cells were seeded in 24-well plates with 1×10^5 cells per well and allowed to recover for 16-24 hr. Once confluency reached approximately 90%, the effect of the fatty acids against 7KCh-mediated cell death was examined 24 hr after incubation in serum-free medium with 12 μM 7KCh. Fatty acids were tested at 0.1, 0.5, 1, 5 and 10 μM concentrations. The effects of the fatty acids against 7KCh-mediated inflammation and ER stress were examined by incubating cells in 1 μM fatty acids with either 8 μM 7KCh (24 hr for quantitative real-time PCR (qRT-PCR), 24 and 48 hr for immunoblot), or 6 μM 7KCh for 48 hr (for ELISA). Three individual experiments were performed for each treatment with quadruplicate measurements performed for each experiment in 24-well plates.\nThe cell viability was determined by the dehydrogenase activity of the ARPE-19 cells using Cell Counting Kit-8 (CCK8, Dojindo, Gaithersburg, Md.) according to manufacturer's protocol.\nThe lowest effective concentrations of fatty acids that offset the 7KCh-mediated cell death were determined. […] Table 3 lists the lowest concentrations of these fatty acids required to maintain full cell viability against 12 μM 7KCh treatment. All unsaturated fatty acids protected against 7KCh-induced cell death. […] DHA, α-linolenic, and linoleic acid prevented 7KCh-mediated cell death at 5 μM but the rest of unsaturated fatty acids and dihydrosterculic acid required 10 μM to be protective."}}}
{"smiles": "CCCCCCCCC1=C(CCCCCCCC(=O)O)C1", "note": "[sterculic acid, 8-(2-octacyclopropen-1-yl)octanoic acid]", "values": [{"measurement": "GI50", "setting": "[1]", "value": 10, "unit": "µM"}, {"measurement": "GI50", "setting": "[2]", "value": 10, "unit": "µM"}, {"measurement": "inhibition of SCD expression", "setting": "[3]; 1 μM sterculic acid alone", "value": "similarly to 8 μM 7KCh"}, {"measurement": "suppression of SCD expression", "setting": "[3]; 8 μM 7KCh and 1 μM sterculic acid", "value": 86, "unit": "%"}, {"measurement": "induction of GRP78 mRNA expression", "setting": "[4]; 2 ng/ml TNF-α alone or with 1 μM fatty acid, 24 hr, FIG. 17D", "value": "small measurable effect"}, {"measurement": "antagonist effect to the cytokine inductions by TNF-α", "setting": "[4]; 1 μM fatty acid + 2 ng/ml TNF-α, 24 hr", "value": "did not show any antagonist effect"}, {"measurement": "antagonist effect to TNF-α at 5 μM", "setting": "[4]; 5 μM, data not shown", "value": "failed to antagonize"}, {"measurement": "cell toxicity at migration-inhibiting concentration", "setting": "[5]", "value": "without showing significant cell toxicity"}, {"measurement": "concentration that significantly inhibited VEGF-induced endothelial cell migration", "setting": "[5]; 5 h", "value": "Less than 100 μM"}, {"measurement": "cell viability at 0.5 μM", "setting": "[6]; 0.5 μM + 12 μM 7KCh, 24 hr", "value": "significantly increased cell viability"}, {"measurement": "morphological effects on the cells (images)", "setting": "[6]; 1 μM + 12 μM 7KCh, 24 hr, FIG. 12C", "value": "effectively protect"}, {"measurement": "CONC. (μM): lowest concentration required to maintain full cell viability against 7KCh", "setting": "[6]; 12 μM 7KCh for 24 hr, tested 0.1, 0.5, 1, 5 and 10 μM", "value": 1, "unit": "µM"}, {"measurement": "protective effect against 7KCh-mediated cell death", "setting": "[6]; 12 μM 7KCh, 24 hr, 0.1-10 μM fatty acid", "value": "by far the most effective compound"}]}
